Test results taken from patent US6844356B2, “Hemorrhoid therapeutic treatment” (priority 2003, dated 2005).

Assays:
[1] = cited from earlier work
hemorrhoid = assay: injection of the solution into the hemorrhoid of patients; type: in vivo; conditions: injected into the hemorrhoid as water solution
Protocol: A chemical treatment for the permanent relief of hemorrhoids is provided by the chemical composition of this invention. The composition comprises a mixture of Yong Noe, a Chinese herb known to Western man as camphor, quinine, and distilled water. These two ingredients are ground into powder and dissolved in distilled water. The composition is then injected by a medical practitioner into the affected area at least once, and perhaps several times, over a two week period. After a period of time, the hemorrhoidal tissue will turn dark, harden, and flake off leaving the skin clear at the site of the former hemorrhoid. A mixture of Yong Noe and quinine in a […] in an amount of 37.5 grams are divided into 7 equal weight portions. Each portion of the mixture is dissolved in 4 grams of water by placing the composition in a container in boiling water for 3-5 minutes. The composition is a clear whitish solution. This solution is used at room temperature as the medicament for the treatment of hemorrhoids as will be discussed infra. […] The composition of 37.5 grams of solids is comprised of 25 grams of quinine and 12.5 grams of camphor. This mixture is equally divided and filled into seven different 10 cc vials, and 4 cc distilled water is added to each vial. […]

SMILES	solubility [1]	result of injection into the hemorrhoid (hemorrhoid)
CC12CCC(CC1=O)C2(C)C (centres unmarked) [Camphor]	only slightly soluble in water	–
C=C[C@H]1C[N@@]2CC[C@H]1C[C@H]2[C@H](O)c1ccnc2ccc(OC)cc12 [quinine alone, quinine]	–	not effectual
